These results are taken from patent US8383406B2, “Method for stimulating the proliferation of differentiated cells belonging to the chondrogenic lineage” (Maco Parma, priority 2007, dated 2013).

Where a SMILES comes first, the peptide text is derived from it.

The subject of series [1] is hybridoma cells. Conditions: added to the culture medium; WO 01/46220; cited from earlier work.
Series [2] deals with human osteoarthritic chondrocytes. As to the kind of experiment: Culturing of chondrocytes with or without glycylglycine, cell counting. The format is cell-based. The procedure:
The articular cartilage was sampled under sterile conditions from an osteoarthritic patient. The chondrocytes were isolated according to the methods of Green (1971) and Kuettner et al (1982), by enzymatic dissociation of the cartilage in Dulbecco's DMEM medium supplemented with a mixture of antibiotics and antimycotics (10 U/ml penicillin, 10 mg/ml streptomycin, 0.025 mg/ml amphotericin B), 2 mM L-glutamine and 10% foetal calf serum. The cartilage was cut up into small fragments and incubated (37° C.; 20 min) in the aforegoing DMEM medium containing 1 mg/ml of sheep testicular hyaluronidase. The fragments were next washed in PBS buffer (Phosphate Saline Buffer) with a pH of 7.4, and then incubated (60 min, at 37° C.) in the same buffer containing 0.25 g/100 mL trypsin. The fragments of cartilage previously washed with the PBS buffer with a pH of 7.4 were finally dissociated via incubation (15 hrs at 37° C.) in the DMEM medium containing 0.2% collagenase of Clostridium histolyticum and 10% foetal calf serum. The cells were collected by centrifugation (15 min, 3000 g), washed 2 times with the complete DMEM medium and cultured under the conditions hereinbelow. The chondrocytes were cultured on uncoated culture plates with polystyrene wells, at 37° C. for 1 to 7 days in a CO2 atmosphere (5%), in the absence or presence of 20 mM of glycylglycine, in a DMEM medium containing 10% foetal calf serum supplemented with a mixture of antibiotics and antimyotics (10 U/ml penicillin, 10 mg/ml streptomycin, 0.025 mg/ml amphotericin B) and 2 mM L-glutamine. With a view to subsequent cytometric analyses, the chondrocytes were detached by incubating for 3 minutes in a pH 7.4 PBS buffer solution of trypsin (0.25 g/100 ml) and EDTA (0.2 g/100 ml) kept at 37° C. After 3 washings with PBS buffer at pH 7.4, and after counting the cells using a Malassez chamber, the chondrocytes were subjected to various flow cytometry analyses described hereinbelow. FIGS. 1A and 1B show this large-scale production of the chondrocytes. […]

The test system is the same in series [3]. Description: Calcein-AM test, viability and cytotoxicity of the cells. The format is cell-based. Conditions: 20 mM glycylglycine; cultured for 7 days; FIG. 3 curve C vs B. The method, then:
(§1) The analyses were carried out using an FACScan cytometer equipped with ProCellQuest software, under the following experimental conditions: cells in suspension in a PBS isotonic buffer at pH 7.4, having an osmolality of 320-330 mOsmol/kg, with the number of cells analysed being 10,000.
The viability of the chondrocytes and the toxicity of the peptide were studied using the method developed by Bratosin et al (2005) and based on measuring the cellular esterase activity by means of calcein-AM.
Principle—Calcein-AM is a non-fluorescent acetic ester of fluorescein which passively passes through the membranes of the viable cells and is transformed by the cytosolic esterases into fluorescent calcein, which provides an intense green signal at 530 nm and which is retained only by the cells having an intact plasma membrane. […]
Operating procedure—The chondrocytes (4×10^5) in suspension in 200 μl of PBS buffer at pH 7.4 are incubated (45 min at 37° C.) in darkness, in the presence of 5 μM calcein-AM. Next, 0.5 ml of PBS buffer at pH 7.4 is added to the suspension, which is immediately analysed by flow cytometry in the FL1 logarithmic mode (number of cells counted: 10,000).
The intensity of the fluorescence on a logarithmic scale is plotted on the x-axis and the relative number of cells is plotted on the y-axis.

Series [4] shares this test system. Description: Cell proliferation test, PKH-26 flow cytometry. The settings on record: 20 mM glycylglycine; cultured for 3 days; FIG. 2 curve C vs B. The format is cell-based. The procedure: as §1
Principle—Prior to being cultured, the chondrocytes were irreversibly labelled with a vital fluorescent membrane intercalator derived from arcidine orange, the PKH-26, with a view to following cell proliferation via flow cytometry, which entails a decrease in the overall fluorescence of the cells.
Operating procedure—10^6 chondrocytes in suspension in 1 ml of the “diluent C” of the labelling kit are added to 1 ml of a […] solution of PKH-26 in the same diluent. After 4 min of incubation at ambient temperature, the reaction is stopped by the addition of 2 ml of foetal calf serum and then, after incubating for one minute, 4 ml of complete DMEM medium are added. After centrifuging (5 min, 2000 g at 25° C.), the resulting sediment is washed 3 times with 10 ml of complete DMEM medium. The cells are then cultured for 3 days under the conditions described in example 1.2, detached from the support thereof according to the above-described method, placed back in suspension in a PBS buffer at pH 7.4 and analyzed by flow cytometry in the logarithmic mode FL2.
Background: Flow cytometry measures light scatter and fluorescence of single cells or particles in a stream.

In series [5] the test system is chondrocytes. As to the kind of experiment: Proliferation rate of the cells, glycylglycine concentration kinetics. In kind it is cell-based, human. Conditions: for Number of cells obtained / Proliferation rate after 3 days: 76,000 cells cultured for three days; for Proliferation rate/culture medium without Gly-Gly: three days. The procedure: The chondrocytes were cultured on uncoated culture plates with polystyrene wells, at 37° C. for 1 to 7 days in a CO2 atmosphere (5%), in the absence or presence of 20 mM of glycylglycine, in a DMEM medium containing 10% foetal calf serum supplemented with a mixture of antibiotics and antimyotics (10 U/ml penicillin, 10 mg/ml streptomycin, 0.025 mg/ml amphotericin B) and 2 mM L-glutamine. With a view to subsequent cytometric analyses, the chondrocytes were detached by incubating for 3 minutes in a pH 7.4 PBS buffer solution of trypsin (0.25 g/100 ml) and EDTA (0.2 g/100 ml) kept at 37° C. After 3 washings with PBS buffer at pH 7.4, and after counting the cells using a Malassez chamber, the chondrocytes were subjected to various flow cytometry analyses described hereinbelow. The table below compiles the proliferation rates of cells cultured in the absence or presence of various concentrations of glycylglycine. In order to carry out this test, 76,000 cells were cultured for three days under the culture conditions presented below.

`NCC(=O)O` [glycine monomer, glycine, reference compound]: the “proliferation of hybridoma cells in comparison with non-supplemented culture medium” value in series [1] is “only very slightly increases”.
As to `NCC(=O)NCC(=O)O` [glycylglycine] (H-Gly-Gly-OH), the “proliferation rate in comparison with identical culture medium not supplemented with glycylglycine” value in series [2] (20 mM glycylglycine, DMEM medium, 7 days (FIGS. 1A and 1B), cell counting) is listed as “multiplied by three”. In addition, the “proliferation rate in comparison with non-supplemented culture medium (summary statement)” value in series [2] (glycylglycine added to the chondrocyte culture medium) was “multiplied by three, and even by seven”. Moreover, in series [2] (presence of glycylglycine in culture medium), the “dedifferentiation of the chondrocytes into fibroblasts” value is “blocks the dedifferentiation of the chondrocytes into fibroblasts”. In addition, the “toxicity to / viability of the chondrocytes (calcein-AM)” value in series [3] was “not toxic to the chondrocytes and does not reduce the viability thereof”. Further, the “proliferation of hybridoma cells in comparison with non-supplemented culture medium” value in series [1] is “only very slightly increases”. Besides, in series [4], the “PKH-26 fluorescence / cell divisions compared with DMEM medium without glycylglycine” value is listed as “the cell divisions were more numerous”. Also, the “Number of cells obtained” value in series [5] (20 mM Gly-Gly) is listed as 190,000 cells/ml; in series [5] (50 mM Gly-Gly) it was 124,000 cells/ml; in series [5] (100 mM Gly-Gly), 145,000 cells/ml; in series [5] (200 mM Gly-Gly), 130,000 cells/ml; in series [5] (500 mM Gly-Gly), 112,000 cells/ml. Also, the “Proliferation rate after 3 days” value turned out to be 150% in series [5] (20 mM Gly-Gly); 63% in series [5] (50 mM Gly-Gly); 91% in series [5] (100 mM Gly-Gly); 71% in series [5] (200 mM Gly-Gly); 47% in series [5] (500 mM Gly-Gly). For the same compound, the “Proliferation rate/culture medium without Gly-Gly” value is reported as 2.11 in series [5] (20 mM Gly-Gly); 1.38 in series [5] (50 mM Gly-Gly); 1.61 in series [5] (100 mM Gly-Gly); 1.44 in series [5] (200 mM Gly-Gly); 1.24 in series [5] (500 mM Gly-Gly).
